{"source": "ChEMBL document CHEMBL4325888", "about": "“Medicinal chemistry of vicinal diaryl scaffold: A mini review” (Eur J Med Chem, 2019)", "key": {"Tubulin": {"biological_target": "Tubulin", "assay_type": "protein-complex assay, Homo sapiens"}, "Rattus norvegicus": {"species": "Rattus norvegicus", "test": "animal or person", "assay_type": "functional"}, "[1]": {"biological_target": "T1, Prostaglandin G/H synthase 2 (Ovis aries, UniProt P79208)", "T1 sequence (P79208 whole entry)": "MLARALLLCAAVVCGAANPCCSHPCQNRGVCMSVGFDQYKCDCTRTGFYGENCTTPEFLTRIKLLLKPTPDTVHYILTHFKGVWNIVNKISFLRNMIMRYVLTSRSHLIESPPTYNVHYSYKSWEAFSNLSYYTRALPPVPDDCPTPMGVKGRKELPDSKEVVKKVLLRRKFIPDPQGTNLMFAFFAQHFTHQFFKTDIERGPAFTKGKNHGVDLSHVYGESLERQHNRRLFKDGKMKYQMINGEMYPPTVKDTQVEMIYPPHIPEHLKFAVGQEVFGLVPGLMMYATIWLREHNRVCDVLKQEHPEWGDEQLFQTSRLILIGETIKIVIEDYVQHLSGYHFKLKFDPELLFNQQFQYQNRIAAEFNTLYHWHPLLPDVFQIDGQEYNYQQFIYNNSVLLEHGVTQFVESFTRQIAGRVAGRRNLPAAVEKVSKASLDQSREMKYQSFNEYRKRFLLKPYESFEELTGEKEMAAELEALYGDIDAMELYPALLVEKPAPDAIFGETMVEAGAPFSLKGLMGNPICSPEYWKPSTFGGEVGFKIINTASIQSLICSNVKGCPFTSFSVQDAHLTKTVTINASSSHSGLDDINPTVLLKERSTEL"}, "MCF7 [2]": {"system": "MCF7", "test": "cells", "assay_type": "functional, cell-based", "details": "Homo sapiens, MCF7, 48 h"}, "MCF7 [3]": {"system": "MCF7", "test": "cells", "assay_type": "functional, cell-based", "details": "Homo sapiens"}, "[4]": {"biological_target": "T1, Prostaglandin G/H synthase 2", "remark": "listed apart in the source"}, "[5]": {"biological_target": "T2, Prostaglandin G/H synthase 1 (Mus musculus, UniProt P22437)", "T2 sequence (P22437 whole entry)": "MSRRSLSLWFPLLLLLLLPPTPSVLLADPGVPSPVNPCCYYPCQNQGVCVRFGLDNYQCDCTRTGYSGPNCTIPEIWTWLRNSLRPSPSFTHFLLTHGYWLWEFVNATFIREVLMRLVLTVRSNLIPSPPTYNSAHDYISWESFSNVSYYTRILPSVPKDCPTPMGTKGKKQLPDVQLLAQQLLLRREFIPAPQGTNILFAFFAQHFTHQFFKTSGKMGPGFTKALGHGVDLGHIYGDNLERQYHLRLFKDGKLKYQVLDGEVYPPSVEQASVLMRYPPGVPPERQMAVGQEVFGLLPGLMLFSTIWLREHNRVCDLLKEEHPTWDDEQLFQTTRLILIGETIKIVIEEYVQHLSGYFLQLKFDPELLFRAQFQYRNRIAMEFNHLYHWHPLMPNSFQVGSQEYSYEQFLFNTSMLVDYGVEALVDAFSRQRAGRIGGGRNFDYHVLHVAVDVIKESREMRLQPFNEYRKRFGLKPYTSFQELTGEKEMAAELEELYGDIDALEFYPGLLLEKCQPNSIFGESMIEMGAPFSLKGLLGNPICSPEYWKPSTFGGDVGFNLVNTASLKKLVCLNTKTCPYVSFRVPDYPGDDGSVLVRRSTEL"}}}
{"smiles": "COc1ccc([C@@H]2OCO[C@H]2c2cc(OC)c(OC)c(OC)c2)cc1O", "values": [{"measurement": "IC50", "setting": "Tubulin", "result": "4 to 6", "unit": "µM"}]}
{"smiles": "CS(=O)(=O)c1ccc(-c2snnc2-c2ccc(F)cc2)cc1", "values": [{"measurement": "ED50", "setting": "Rattus norvegicus", "result": 0.7, "unit": "mg/kg"}]}
{"smiles": "[N-]=[N+]=Nc1ccc(C2=C(c3ccccc3)C(=O)OC2)cc1", "values": [{"measurement": "IC50", "setting": "[1]", "result": 0.196, "unit": "µM"}]}
{"smiles": "COC(=O)c1ccc(-n2nc(C(F)(F)F)cc2-c2cc(OC)c(OC)c(OC)c2)cc1", "values": [{"measurement": "IC50", "setting": "MCF7 [2]", "result": 1.3, "unit": "µM"}]}
{"smiles": "COc1ccc(-c2coc(=O)n2-c2cc(OC)c(OC)c(OC)c2)cc1N", "values": [{"measurement": "IC50", "setting": "MCF7 [3]", "result": 1.8, "unit": "µM"}]}
{"smiles": "CC1C(c2ccc(F)cc2)=C(c2ccc(S(C)(=O)=O)cc2)ON1C", "note": "(stereo not given)", "values": [{"measurement": "IC50", "setting": "[4]", "result": 0.0316, "unit": "µM"}]}
{"smiles": "CC1(C)OC(c2ccc(S(N)(=O)=O)cc2)=C(c2cccc(F)c2)C1=O", "note": "[POLMACOXIB]", "values": [{"measurement": "IC50", "setting": "[5]", "result": 0.003, "unit": "µM"}]}
{"smiles": "Cc1ccc(-c2cc(C(F)(F)F)nn2-c2ccc(N=[N+]=[N-])cc2)cc1", "values": [{"measurement": "IC50", "setting": "[1]", "result": 1.55, "unit": "µM"}]}
{"smiles": "COc1ccc(-c2oc(O)nc2-c2cc(OC)c(OC)c(OC)c2)cc1N", "values": [{"measurement": "IC50", "setting": "MCF7 [3]", "result": 4.9, "unit": "µM"}]}
{"smiles": "COc1ccc([C@H]2OCO[C@@H]2c2cc(OC)c(OC)c(OC)c2)cc1O", "values": [{"measurement": "IC50", "setting": "Tubulin", "result": "> 50", "unit": "µM"}]}
